# Values joined by “and” are separate entries in the source; they are usually repeats but may differ in a detail not shown here. Identical values can stand only once.
# Legend:
# [1] = system: H1650 cells; assay: MTT assay for cell proliferation and cytotoxicity, H1650; type: cell-based; conditions: Homo sapiens, NCI-H1650, 48 h, H1650, n = 5
# Description: (§1) The human cancer cells (H1650, H1975, KYSE70, KYSE410 and KYSE450) were purchased from the Type Culture Collection of the Chinese Academy of Sciences (Shanghai, China). The human immortalized normal esophageal epithelial cell line SHEE was donated by Dr. Enmin Li from the Laboratory of Tumor Pathology (Shantou University Medical College, Shantou, Guangdong, China). Drug-resistant cells (H1650TR, H1975OR, KYSE70TR, KYSE410TR and KYSE450TR) were induced by China-US (Henan) Hormel Cancer Institute. The cellswere cultured in RPMI-1640 complete growth medium containing 100 U/mL penicillin-streptomycin and 10% FBS. Based on the above medium formula, 100 nm/L paclitaxel was added in taxol-resistant cells, 100 nm/L gefitinib was added in gefitinib-resistant cells. The cells were incubated at 37 °C in an atmosphere containing 5% of CO2. The compounds were dissolved in DMSO to make a 50 mM stock solution and were diluted to the concentration of working solutions with complete growth medium before administration.
# (§2) Cells were seeded in 96-well plates with 2,200–2,500 cells/well in100 μL. One day after seeding, test compounds with the concentration between 0 and 50 μM were added with 0.1% DMSO as control. Five multiple wells for each concentration. After 48 h, MTT was added and incubated in the plate for 1–4 h in the incubator. The absorbance at 490 nm was measured using a microplate reader (Thermo).
# [2] = system: H1975 cells; assay: MTT assay for cell proliferation and cytotoxicity, H1975; type: cell-based, human; conditions: Homo sapiens, NCI-H1975, 48 h, MTT, 48 h, H1975, n = 5; read-out: IC50 48 h H1975
# Description: as §1
# Cells were seeded in 96-well plates with 2,200–2,500 cells/well in100 μL. One day after seeding, test compounds with the concentration between 0 and 50 μM were added with 0.1% DMSO as control. Five multiple wells for each concentration. […] The absorbance at 490 nm was measured using a microplate reader (Thermo).
# [3] = system: SHEE cells; assay: MTT assay, normal esophageal epithelial cell line SHEE; type: cell-based; conditions: Homo sapiens, 48 h, n = 5
# Description: as §1, §2
# [4] = system: KYSE70 cells; assay: MTT assay, KYSE70; type: cell-based, human; conditions: for IC50: Homo sapiens, KYSE-70, MTT, 48 h, KYSE70, n = 5
# Description: as §1, §2
# [5] = system: KYSE410 cells; assay: MTT assay, KYSE410; type: cell-based, human; conditions: for IC50: Homo sapiens, KYSE-410, MTT, 48 h, KYSE410, n = 5, read-out: IC50 48 h KYSE410
# Description: as §1, §2
# [6] = system: KYSE450 cells; assay: MTT assay, KYSE450; type: cell-based, human; conditions: for IC50: Homo sapiens, KYSE-450, MTT, 48 h, KYSE450, n = 5, read-out: IC50 48 h KYSE450; for absorbance 490 nm, single well / mean absorbance 490 nm (row G) / mean absorbance 490 nm minus background (row H): KYSE450
# Description: as §1, §2
# [7] = concentration 12.5 (unit not given)
# [8] = concentration 25 (unit not given)
# [9] = concentration 50 (unit not given)
# [10] = concentration 100 (unit not given)
compound,measurement,setting,value
Fc1cccc(-n2cc(-c3cccc(Nc4ncnc5cc6c(cc45)OCCOCCOCCO6)c3)nn2)c1 [compound 3a],IC50,[1],15.6 ± 1.02 µM
same,IC50,[2],9.87 ± 0.88 µM
same,IC50,[3],12.1 ± 0.97 µM
same,IC50,[4],10.2 ± 0.88 µM
same,IC50,[5],48.6 ± 2.16 µM
same,IC50,[6],7.24 ± 0.65 µM
same,melting point,,123 to 126 °C
Fc1ccc(-n2cc(-c3cccc(Nc4ncnc5cc6c(cc45)OCCOCCOCCO6)c3)nn2)cc1 [compound 3c],IC50,[1],9.4 ± 0.73 µM
same,IC50,[2],> 50 µM
same,IC50,[3],6.23 ± 0.37 µM
same,IC50,[4],5.84 ± 0.36 µM
same,IC50,[5],> 50 µM
same,IC50,[6],13.8 ± 1.13 µM
same,melting point,,129 to 132 °C
c1ccc(-n2cc(-c3cccc(Nc4ncnc5cc6c(cc45)OCCOCCOCCO6)c3)nn2)cc1 [compound 3f],IC50,[1],12.3 ± 0.91 µM
same,IC50,[2],> 50 µM
same,IC50,[3],> 50 µM
same,IC50,[4],25 ± 1.53 µM
same,IC50,[5],> 50 µM
same,IC50,[6],45 ± 2.53 µM
same,melting point,,148 to 150 °C
Clc1cccc(-n2cc(-c3cccc(Nc4ncnc5cc6c(cc45)OCCOCCOCCO6)c3)nn2)c1 [compound 3g],IC50,[1],8.72 ± 0.73 µM
same,IC50,[2],4.75 ± 0.33 µM
same,IC50,[3],8.01 ± 0.77 µM
same,IC50,[4],6.13 ± 0.31 µM
same,IC50,[5],10.9 ± 0.99 µM
same,IC50,[6],4.51 ± 0.29 µM
Ic1ccccc1-n1cc(-c2cccc(Nc3ncnc4cc5c(cc34)OCCOCCOCCO5)c2)nn1 [compound 3h],IC50,[1],30.6 ± 1.99 µM
same,IC50,[2],12.1 ± 0.92 µM
same,IC50,[3],22.6 ± 1.19 µM
same,IC50,[4],18.4 ± 1.05 µM
same,IC50,[5],> 50 µM
same,IC50,[6],16.7 ± 1.31 µM
same,melting point,,137 to 140 °C
COc1cccc(-n2cc(-c3cccc(Nc4ncnc5cc6c(cc45)OCCOCCOCCO6)c3)nn2)c1 [compound 3i],IC50,[1],6.25 ± 0.54 µM
same,IC50,[2],19.7 ± 1.07 µM
same,IC50,[3],28.1 ± 1.38 µM
same,IC50,[4],7.02 ± 0.64 µM
same,blank-corrected absorbance 490 nm relative to control (fraction),"[4]; KYSE70, concentration 12.5",0.1099
same,inhibition (1 minus fraction of control),"[4]; KYSE70, concentration 12.5",0.8901
same,blank-corrected absorbance 490 nm relative to control (fraction),"[4]; KYSE70, concentration 25",0.08489
same,inhibition (1 minus fraction of control),"[4]; KYSE70, concentration 25",0.9151
same,blank-corrected absorbance 490 nm relative to control (fraction),"[4]; KYSE70, concentration 50",0.007475
same,inhibition (1 minus fraction of control),"[4]; KYSE70, concentration 50",0.9925
same,blank-corrected absorbance 490 nm relative to control (fraction),"[4]; KYSE70, concentration 100",-0.01388
same,inhibition (1 minus fraction of control),"[4]; KYSE70, concentration 100",1.014
same,IC50,[5],> 50 µM
same,blank-corrected absorbance 490 nm relative to control (fraction),"[5]; KYSE410, concentration 12.5",0.4787
same,blank-corrected absorbance 490 nm relative to control (fraction),"[5]; KYSE410, concentration 25",0.6596
same,blank-corrected absorbance 490 nm relative to control (fraction),"[5]; KYSE410, concentration 50",1.468
same,blank-corrected absorbance 490 nm relative to control (fraction),"[5]; KYSE410, concentration 100",0.817
same,IC50,[6],10 ± 0.93 µM
same,"absorbance 490 nm, single well",[6]; [7],0.3641 and 0.3196 and 0.3651
same,mean absorbance 490 nm (row G),[6]; [7],0.3496
same,mean absorbance 490 nm minus background (row H),[6]; [7],0.2948
same,"absorbance 490 nm, single well",[6]; [8],0.1604 and 0.1809 and 0.1731
same,mean absorbance 490 nm (row G),[6]; [8],0.1715
same,mean absorbance 490 nm minus background (row H),[6]; [8],0.1167
same,"absorbance 490 nm, single well",[6]; [9],0.1052 and 0.1046 and 0.0923 and 0.1026
same,mean absorbance 490 nm (row G),[6]; [9],0.1012
same,mean absorbance 490 nm minus background (row H),[6]; [9],0.04637
same,"absorbance 490 nm, single well",[6]; [10],0.0702 and 0.0745 and 0.0767 and 0.0714
same,mean absorbance 490 nm (row G),[6]; [10],0.0732
same,mean absorbance 490 nm minus background (row H),[6]; [10],0.0184
same,melting point,,122 to 125 °C
Brc1ccc(-n2cc(-c3cccc(Nc4ncnc5cc6c(cc45)OCCOCCOCCO6)c3)nn2)cc1 [compound 3j],IC50,[1],27.6 ± 1.85 µM
same,IC50,[2],5.02 ± 0.37 µM
same,IC50,[3],> 50 µM
same,IC50,[4],50 µM
same,IC50,[5],> 50 µM
same,IC50,[6],12.5 ± 1.22 µM
same,melting point,,158 to 161 °C
Brc1ccccc1-n1cc(-c2cccc(Nc3ncnc4cc5c(cc34)OCCOCCOCCO5)c2)nn1 [compound 3k],IC50,[1],17.7 ± 1.21 µM
same,IC50,[2],27.2 ± 1.67 µM
same,IC50,[3],12.5 ± 1.03 µM
same,IC50,[4],5.05 ± 0.34 µM
same,IC50,[5],21.9 ± 1.39 µM
same,IC50,[6],6.25 ± 0.57 µM
same,melting point,,129 to 132 °C
Fc1ccccc1Cn1cc(-c2cccc(Nc3ncnc4cc5c(cc34)OCCOCCOCCO5)c2)nn1 [compound 3m],IC50,[1],> 50 µM
same,IC50,[2],47.3 ± 2.01 µM
same,IC50,[3],> 50 µM
same,IC50,[4],> 50 µM
same,IC50,[5],> 50 µM
same,IC50,[6],> 50 µM
same,melting point,,118 to 121 °C
Cc1ccccc1Cn1cc(-c2cccc(Nc3ncnc4cc5c(cc34)OCCOCCOCCO5)c2)nn1 [compound 3n],IC50,[1],17 ± 1.27 µM
same,IC50,[2],18.5 ± 1.43 µM
same,IC50,[3],8.05 ± 0.71 µM
same,IC50,[4],6.87 ± 0.51 µM
same,blank-corrected absorbance 490 nm relative to control (fraction),"[4]; KYSE70, concentration 12.5",0.09055
same,inhibition (1 minus fraction of control),"[4]; KYSE70, concentration 12.5",0.9094
same,blank-corrected absorbance 490 nm relative to control (fraction),"[4]; KYSE70, concentration 25",0.002598
same,inhibition (1 minus fraction of control),"[4]; KYSE70, concentration 25",0.9974
same,blank-corrected absorbance 490 nm relative to control (fraction),"[4]; KYSE70, concentration 50",0.03637
same,inhibition (1 minus fraction of control),"[4]; KYSE70, concentration 50",0.9636
same,blank-corrected absorbance 490 nm relative to control (fraction),"[4]; KYSE70, concentration 100",0.0579
same,inhibition (1 minus fraction of control),"[4]; KYSE70, concentration 100",0.9421
same,IC50,[5],8.23 ± 0.92 µM
same,blank-corrected absorbance 490 nm relative to control (fraction),"[5]; KYSE410, concentration 12.5",0.2414
same,inhibition (1 minus fraction of control),"[5]; KYSE410, concentration 12.5",0.7586
same,blank-corrected absorbance 490 nm relative to control (fraction),"[5]; KYSE410, concentration 25",0.04668
same,inhibition (1 minus fraction of control),"[5]; KYSE410, concentration 25",0.9533
same,blank-corrected absorbance 490 nm relative to control (fraction),"[5]; KYSE410, concentration 50",0.02603
same,inhibition (1 minus fraction of control),"[5]; KYSE410, concentration 50",0.974
same,blank-corrected absorbance 490 nm relative to control (fraction),"[5]; KYSE410, concentration 100",0.07058
same,inhibition (1 minus fraction of control),"[5]; KYSE410, concentration 100",0.9294
same,IC50,[6],13.4 ± 0.99 µM
same,"absorbance 490 nm, single well",[6]; [7],0.3403 and 0.3956 and 0.3877
same,mean absorbance 490 nm (row G),[6]; [7],0.3745
same,mean absorbance 490 nm minus background (row H),[6]; [7],0.3163
same,"absorbance 490 nm, single well",[6]; [8],0.0581 and 0.0586 and 0.0622 and 0.0619
same,mean absorbance 490 nm (row G),[6]; [8],0.0602
same,mean absorbance 490 nm minus background (row H),[6]; [8],0.002
same,"absorbance 490 nm, single well",[6]; [9],0.062 and 0.0626 and 0.0677 and 0.0632
same,mean absorbance 490 nm (row G),[6]; [9],0.06374
same,mean absorbance 490 nm minus background (row H),[6]; [9],0.00554
same,"absorbance 490 nm, single well",[6]; [10],0.0608 and 0.061 and 0.0613 and 0.0611 and 0.0627
same,mean absorbance 490 nm (row G),[6]; [10],0.06138
same,mean absorbance 490 nm minus background (row H),[6]; [10],0.00318
same,melting point,,114 to 117 °C
Cc1ccc(Cn2cc(-c3cccc(Nc4ncnc5cc6c(cc45)OCCOCCOCCO6)c3)nn2)cc1 [compound 3o],IC50,[1],5.6 ± 0.29 µM
same,IC50,[2],8.7 ± 0.66 µM
same,IC50,[3],22.4 ± 1.26 µM
same,IC50,[4],14.6 ± 0.96 µM
same,IC50,[5],> 50 µM
same,IC50,[6],4.81 ± 0.36 µM
same,melting point,,124 to 127 °C
Ic1ccccc1Cn1cc(-c2cccc(Nc3ncnc4cc5c(cc34)OCCOCCOCCO5)c2)nn1 [compound 3p],IC50,[1],4.41 ± 0.31 µM
same,IC50,[2],39.5 ± 1.91 µM
same,IC50,[3],> 50 µM
same,IC50,[4],19.9 ± 1.31 µM
same,IC50,[5],> 50 µM
same,IC50,[6],> 50 µM
same,melting point,,121 to 123 °C

# From PMC9709406 (Frontiers in Pharmacology, 2022)
